Assay results as given in paper PMC8397634 (Journal of Natural Medicines, 2021).
Several values for one entry are separate records, joined by “and”; a condition that tells them apart may be missing. Equal entries are not always repeated. Entries after “also recorded” stand apart in the source; their conditions may differ. Where two headings read alike, the source gives them in different places.

Columns and labels:
α7 nAChR = conditions: cited from earlier work; for α7 nAChR agonist activity: ref 2 (Alijevic, et al.)
α4β2 nAChRs [1] = target: T1, α4β2 nAChRs (Homo sapiens, UniProt P17787+P43681); test: In vitro nAChR functional assay (automated patch-clamp, CHO cells); format: cell-based; conditions: for Emax: CHO, read-out: % activation of α4β2 nAChR (normalized to nicotine)
T1 sequence (P43681 29-627 limits assumed): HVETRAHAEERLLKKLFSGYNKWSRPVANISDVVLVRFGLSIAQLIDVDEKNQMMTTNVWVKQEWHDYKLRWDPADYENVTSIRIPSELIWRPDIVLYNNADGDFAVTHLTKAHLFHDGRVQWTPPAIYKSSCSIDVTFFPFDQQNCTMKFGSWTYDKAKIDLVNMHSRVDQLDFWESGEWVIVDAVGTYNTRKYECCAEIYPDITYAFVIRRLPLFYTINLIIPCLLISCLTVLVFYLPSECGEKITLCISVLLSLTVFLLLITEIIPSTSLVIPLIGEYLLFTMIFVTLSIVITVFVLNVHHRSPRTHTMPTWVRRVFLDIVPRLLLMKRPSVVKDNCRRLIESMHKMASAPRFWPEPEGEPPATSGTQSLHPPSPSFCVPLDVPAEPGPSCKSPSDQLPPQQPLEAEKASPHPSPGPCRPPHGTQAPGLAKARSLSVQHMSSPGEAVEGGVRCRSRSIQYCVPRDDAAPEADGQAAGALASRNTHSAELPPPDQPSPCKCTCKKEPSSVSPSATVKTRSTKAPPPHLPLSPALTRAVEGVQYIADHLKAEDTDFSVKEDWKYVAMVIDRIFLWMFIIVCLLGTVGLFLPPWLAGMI
T1 sequence (P17787 26-502): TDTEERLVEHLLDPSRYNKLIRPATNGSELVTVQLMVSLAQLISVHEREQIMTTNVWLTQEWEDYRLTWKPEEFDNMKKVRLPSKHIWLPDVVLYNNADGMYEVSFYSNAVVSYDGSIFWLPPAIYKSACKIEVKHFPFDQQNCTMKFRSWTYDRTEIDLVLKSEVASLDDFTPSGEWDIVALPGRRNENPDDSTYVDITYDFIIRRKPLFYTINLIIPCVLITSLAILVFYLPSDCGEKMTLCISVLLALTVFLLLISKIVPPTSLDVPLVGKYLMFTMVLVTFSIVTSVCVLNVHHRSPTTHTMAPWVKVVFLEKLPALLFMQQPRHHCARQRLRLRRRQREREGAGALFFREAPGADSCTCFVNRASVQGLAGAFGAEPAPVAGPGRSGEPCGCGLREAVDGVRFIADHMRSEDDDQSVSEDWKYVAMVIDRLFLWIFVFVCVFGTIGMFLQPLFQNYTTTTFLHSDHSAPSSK
Method: Electrophysiological responses were recorded using an automated patch-clamp Patchliner Octo® system (Nanion Technologies, Munich, Germany) equipped with two EPC-10 Quadro patch-clamp amplifiers (HEKA Elektronik, Lambrecht, Germany) as described previously. Chinese hamster ovarian (CHO) cells stably expressing human α4β2 nAChRs (Charles River Laboratories, Wilmington, MA, USA) were used. All experiments were performed at room temperature (24 °C) and repeated at least three times. Data were analyzed using Patchmaster software (HEKA Elektronik). Offline data analysis was performed in Apache OpenOffice™ (v4.1.2; […]). Igor Pro software (v6.2.2.2; WaveMetrics, Lake Oswego, OR, USA) was used to determine EC50 values. […] The average values were then fitted to the Hill equation: I=Baseline+X^∧nH(Imax-Baseline)/X^∧nH+EC50^∧nH, where I is the current response, Baseline is the minimal current response, X is the agonist concentration, nH is the Hill coefficient, Imax is the maximal current, and EC50 is the agonist concentration producing half-maximal activation. […]

[2] = Brain bioavailability assay in zebrafish (UPLC-HRMS of brain homogenate); format: in vivo, Danio rerio; conditions: zebrafish brain after 20-min exposure, linear relationship assumed, mean ± SEM; for concentration at 20 min: both sexes, zebrafish (Danio rerio), 1 mg/L, read-out: Relative brain level per 1 mg/L compound
Method: Four fish (2 males and 2 females) per compound were used to determine the brain bioavailability of the compounds. Immediately after the 20-min compound treatment, the zebrafish were rinsed briefly to remove excessive compound on their body and terminated with 250 mg/L tricaine (CAS No. 886-86-2; Sigma). The fish were decapitated at the level of the gills using a surgical knife. The head was turned dorsal side down, and soft tissue was removed from the ventral side of the skull until the base of the skull was exposed. The skull was broken open and the bone from the ventral side of the brain was removed. The brain was then placed in a microcentrifuge tube, weighed, snap-frozen in liquid nitrogen, and stored at – 80 °C until the analysis.
Briefly, on the day of analysis, the brain samples were defrosted, resuspended in a methanol solution (2:1 [v/v] methanol:MilliQ water), and homogenized with vigorous agitation and ultrasonication (5 min each). The homogenate was centrifuged at 15,000 × rpm for 10 min, and the supernatant was analyzed using a UPLC-Q Exactive Orbitrap-HRMS system (Thermo Fisher Scientific™, Bremen, Germany). Chromatographic separation was achieved on a Synergi™ 4-µm Hydro-RP 80 Å, L.C. Column (250 × 4.6 mm; Phenomenex Inc., Torrance, CA, USA) with 0.1% formic acid in water (mobile phase A) and 0.1% formic acid in acetonitrile (mobile phase B). A gradient method at a 500 µL/min flow rate was applied as follows: (1) 5% B for 1 min, and (2) increase to 95% B over 7 min and hold for 2 min. The injection volume was 5 μL. The mass spectrometer was operated in electrospray positive mode (ESI, Thermo Fisher Scientific), while data acquisition was performed using the parallel reaction monitoring (PRM) and full scan modes. The source settings were set as follows: sheath gas flow rate = 60 psi; aux gas flow rate = 20 arbitrary units; spray voltage = 3.5 kV; capillary temperature = 280 °C; and sweep gas flow rate = 1. The full scan mode parameters were set as follows: resolution = 35,000 FWHM at 200 m/z; AGC target = 1E6; maximum injection time = 110 ms; and scan range = 100–350 m/z. The chromatographic and Orbitrap MS parameters for PRM analysis were the same as those in the full scan mode, except for: AGC target = 2E5; maximum IT = 60 ms; and resolution = 17,500 FWHM at 200 m/z. The XCalibur™ v4.0.27.19 software (Thermo Fisher Scientific) and TraceFinder™ v4.1 Forensic (Thermo Fisher Scientific, San José, CA, USA) were used for system control and data processing, respectively. The Q Exactive 2.8 SP 1 software (Thermo Fisher Scientific) was used to control the mass spectrometer.

[3] = system: other molecular targets (175 in vitro binding and enzymatic assays); test: In vitro molecular target profiling (175 binding and enzymatic assays); conditions: 10 µM single concentration; 175 assays; effect greater than 50% considered significant
Method: (§1) All binding and functional assays for molecular target characterization were conducted by Eurofins Cerep SA (Celle-Lévescault, France) and Eurofins Panlabs Discovery Services Taiwan, Ltd. (New Taipei City, Taiwan) using their standard in vitro binding and functional assays (Online Source 2). The radioligand displacement binding assays employed the gold-standard filtration method using membrane preparations from stable cell lines expressing human or rodent target proteins to determine the interaction of the compounds with specific receptors, channels, and transporters. For this purpose, the competitive binding of test compounds against a [^125I]-, [^3H]-, or [^35S]-labeled agonist and/or antagonist was determined. The specific list of radiolabeled ligands and experimental conditions are summarized in Online Source 2. A single concentration of each compound (10 µM in 0.1% DMSO) was used for the screen. […] Negative values were considered to be an artifact arising from, for example, compounds interfering with the assay readout.
3.1. Experimental Conditions
In Vitro Pharmacology: Binding Assays
(§2) Assay Source Ligand Conc. Kd Non Specific Incubation Detection Bibl.

[4] = system: zebrafish (Danio rerio; strain AB); conditions: for Time spent at the bottom of the tank during NTT / anxiolytic-like effect: 30 mg/L
Method: The NTT conditions closely matched the most commonly used conditions described by. In brief, adult male and female wild-type zebrafish were treated with the compounds for 20 min in a final volume of 50 mL in a 250-mL treatment beaker, one fish at a time. The fish were briefly rinsed in fresh system water, and then immediately transferred to a trapezoidal tank (14.6-cm height × 5.5-cm width × 27.9-cm top length and × 23.6-cm bottom length) filled with 1.5 L system water. The behavior of the fish was monitored for the next 5 min using the Noldus EthoVision XT system (Wageningen, Netherlands), with the camera placed approximately 1 m from the test tank. The tanks were uniformly illuminated from above at approximately 200 lx, reported to be the optimal illumination condition for NTT [23]. Background noise was kept at a minimum during the test. All experimental parameters were monitored closely and kept as consistent as possible throughout the study. The part of the tank filled with water (11.5-cm height) was virtually divided into top, center, and bottom of equal heights (approximately 3.8 cm per segment) for the analyses. The average time spent at the top and bottom portions of the tank was analyzed to determine the anxiety-like behavior of fish. The average total distance traveled and freezing time (as defined by a complete cessation of movement except for gills and eyes) were calculated to determine the effects of the compounds on the general behavior of fish. The analyses were conducted for 1-min time bins. To account for any day-to-day variability in fish behavior, fish treated with vehicle were tested on the same day as the compounds. […] A minimum of 12 fish (6 females and 6 males) per condition were used for the study. The actual sample size per condition is indicated in Online Resource 1. […] The experimenters were blind to the test conditions. The NTT was validated with buspirone, a clinical anxiolytic drug, as previously described.
If not, the concentration was reduced until no obvious signs of tolerability problems were observed. […] The concentrations were calculated based on the free base molecular weight.
Two-way repeated measures analysis of variance (ANOVA) with Dunnett post hoc was used for the 1-min binned analysis of the zebrafish NTT data. Treatment was one factor, and time was the second factor. […] Thus, male and female datasets were combined for the final analyses. […] The EC50 values were determined by applying the nonlinear regression analysis. All analyses were conducted using GraphPad Prism v8.2.1 (GraphPad Software, San Diego, CA, USA).

α4β2 nAChRs [5] = target: T1, α4β2 nAChRs; test: In vitro α4β2 nAChR radioligand displacement binding assay; design: host or cells: SH-SY5Y cells (human recombinant), membrane preparation; conditions: for Binding to α4β2 nAChR in target profiling: 10 µM single concentration, effect greater than 50% considered significant
Method: as §1, §2

muscle-type nAChR = target: T2, muscle-type nAChR (Homo sapiens, UniProt P02708+P07510+Q07001); test: Muscle-type nAChR radioligand binding (target profiling); conditions: 10 µM single concentration; effect greater than 50% considered significant
T2 construct: TE671 cells; host or cells: TE671 cells (endogenous)
T2 sequence (P02708 21-457): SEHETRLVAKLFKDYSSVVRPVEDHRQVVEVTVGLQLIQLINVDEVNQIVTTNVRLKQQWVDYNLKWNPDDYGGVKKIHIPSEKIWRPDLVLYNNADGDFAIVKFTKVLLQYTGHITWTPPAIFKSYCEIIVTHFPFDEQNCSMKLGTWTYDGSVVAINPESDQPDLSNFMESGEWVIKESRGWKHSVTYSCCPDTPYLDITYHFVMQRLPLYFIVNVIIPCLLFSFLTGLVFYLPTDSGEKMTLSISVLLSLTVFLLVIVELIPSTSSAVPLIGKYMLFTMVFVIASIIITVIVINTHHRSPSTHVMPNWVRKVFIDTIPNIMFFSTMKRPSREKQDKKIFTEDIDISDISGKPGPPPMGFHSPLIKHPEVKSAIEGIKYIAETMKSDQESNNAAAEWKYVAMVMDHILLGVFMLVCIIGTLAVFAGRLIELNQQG
T2 sequence (Q07001 22-517): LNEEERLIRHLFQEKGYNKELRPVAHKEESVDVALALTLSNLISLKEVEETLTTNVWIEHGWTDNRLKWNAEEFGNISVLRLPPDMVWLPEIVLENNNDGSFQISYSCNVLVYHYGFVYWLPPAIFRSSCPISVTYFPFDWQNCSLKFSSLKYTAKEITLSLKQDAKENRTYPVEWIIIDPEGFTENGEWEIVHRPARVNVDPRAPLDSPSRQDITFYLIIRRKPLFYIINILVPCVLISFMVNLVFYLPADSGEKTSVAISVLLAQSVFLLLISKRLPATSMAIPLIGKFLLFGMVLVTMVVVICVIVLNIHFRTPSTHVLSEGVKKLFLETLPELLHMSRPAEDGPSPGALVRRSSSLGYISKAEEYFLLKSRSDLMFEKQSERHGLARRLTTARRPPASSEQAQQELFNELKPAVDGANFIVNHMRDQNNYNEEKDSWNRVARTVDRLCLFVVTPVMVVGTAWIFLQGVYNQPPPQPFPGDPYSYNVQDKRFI
T2 sequence (P07510 23-517): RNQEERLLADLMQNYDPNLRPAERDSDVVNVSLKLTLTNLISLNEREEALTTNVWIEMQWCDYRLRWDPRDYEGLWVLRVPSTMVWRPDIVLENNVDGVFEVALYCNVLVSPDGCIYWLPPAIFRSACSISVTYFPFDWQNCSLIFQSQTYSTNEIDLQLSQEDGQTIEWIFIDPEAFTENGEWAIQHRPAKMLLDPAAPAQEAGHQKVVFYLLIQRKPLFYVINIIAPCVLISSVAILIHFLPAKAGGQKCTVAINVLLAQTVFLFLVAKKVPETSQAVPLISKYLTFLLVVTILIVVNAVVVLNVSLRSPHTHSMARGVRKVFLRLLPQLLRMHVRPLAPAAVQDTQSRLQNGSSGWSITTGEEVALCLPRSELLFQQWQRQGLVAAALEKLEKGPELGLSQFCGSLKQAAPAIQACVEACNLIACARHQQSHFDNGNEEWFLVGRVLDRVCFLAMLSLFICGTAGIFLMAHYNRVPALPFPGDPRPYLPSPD
Method: as §1, §2

[6] = highest concentration tested (10 mg/L), 20-min treatment
[7] = CHO cells stably expressing human α4β2 nAChRs, patch clamp, 24 °C, mean ± SEM (Fig. 1), read-out: α4β2 nAChR EC50
[8] = other: immersion in compound solution (waterborne exposure)
[9] = all concentrations tested, 20-min treatment, 5-min test, vs vehicle control

Molecule: C1=CCC(c2cccnc2)NC1 (racemic) [Anatabine, ( ±)-Anatabine]
- α7 nAChR agonist activity (α7 nAChR): weak α7 nAChR agonist
- Emax (α4β2 nAChRs [1]): 80%
- concentration at 20 min ([2]; in vivo): 440 ± 150 ng/g
- Binding to or regulation of other molecular targets [3]: did not bind or regulate the activities of other molecular targets
- Freezing time during NTT ([4]; 0.3 mg/L): increased the freezing time during the first 3 min
- Concentration effective in reducing anxiety-like behavior in NTT ([4]; 20-min treatment): 10 mg/L
- Time spent at the bottom of the tank during NTT [4, 6]: significantly decreased the time spent at the bottom
- Total distance traveled during NTT ([4]; lowest (0.3 mg/L) and highest (10 mg/L) concentrations): slight but significant reduction in the total distance traveled
- Binding to α4β2 nAChR in target profiling (α4β2 nAChRs [5]): specific binding
- Binding to muscle-type nAChR in target profiling (muscle-type nAChR): specific binding

Molecule: O=C(c1ccc(Cl)o1)N1CC2CNCC2C1 (stereo not drawn) [AZD1446, 3-(5-chloro-2-furoyl)-3,7-diazabicyclo[3.3.0]octane, reference compound]
- EC50 (α4β2 nAChRs [1]; [7]): 7.9 µM and < 8 µM
- Emax (α4β2 nAChRs [1]): 100%
- Relative brain level per 1 mg/L compound [2]: could not be detected; also recorded: at the limit of detection; also recorded: No value^d
- Time spent at the bottom of the tank during NTT / anxiolytic-like effect ([4]; 20-min treatment): decreased the time spent at the bottom at 2 and 4 min
- Time spent at the bottom of the tank during NTT ([4]; 100 mg/L, 20-min treatment): decreased the time spent at the bottom for the first 2 min
- Time spent at the top of the tank during NTT ([4]; 30 and 100 mg/L, 20-min treatment): increased the time spent at the top
- Size of the reduction of anxiety-like behavior in NTT ([4]; lower two concentrations (30 and 100 mg/L)): ~ 10%

Molecule: CC(=O)OCC[N+](C)(C)C [Acetylcholine, reference compound]
- % activation of α4β2 nAChR (normalized to nicotine) (α4β2 nAChRs [1]): 100%
- concentration at 20 min [2, 8]: 20 ± 10 ng/g
- Time spent at the bottom of the tank during NTT [4, 9]: no effect

Molecule: c1cncc([C@@H]2CCCCN2)c1 [Anabasine, ( +)-Anabasine]
- α7 nAChR activation relative to maximum receptor activation by nicotine or anatabine (α7 nAChR): approximately a third
- α7 nAChR agonist activity (α7 nAChR): weak α7 nAChR agonist
- Emax (α4β2 nAChRs [1]): 7%
- effectiveness in activating α4β2 nAChRs in vitro (α4β2 nAChRs [1]; preliminary data): 8 ± 4%
- EC50 (α4β2 nAChRs [1]; α4β2 nAChR EC50, CHO cells stably expressing human α4β2 nAChRs, patch clamp, 24 °C, mean ± SEM (Fig. 1)): < 8 µM and 0.9 µM
- concentration at 20 min ([2]; in vivo): 230 ± 70 ng/g
- Time spent at the bottom of the tank during NTT [4, 9]: no significant effect

Molecule: O=C1CC2(CCCC2)CC(=O)N1CCCCN1CCN(c2ncccn2)CC1 [Buspirone, buspirone, reference compound]
- Time spent at the bottom of the tank during NTT / anxiolytic-like effect ([4]; 20-min treatment): consistent anxiolytic-like effect across all time points
- Freezing response during NTT ([4]; 100 mg/L): increased the freezing response at 1, 2, and 5 min
- Total distance traveled during NTT ([4]; 100 mg/L): reduced the total distance traveled at 1, 4, and 5 min
- Time spent at the bottom of the tank during NTT [4, 9]: either reduced the time spent on the bottom or increased the time spent on the top at multiple time points

Molecule: CN1C(=O)CC[C@H]1c1cccnc1 [Cotinine, (–)-cotinine]
- EC50 (α4β2 nAChRs [1]; [7]): 85.3 µM
- Emax (α4β2 nAChRs [1]): 59%
- concentration at 20 min [2, 8]: 20 ± 10 ng/g
- Relative brain level per 1 mg/L compound [2]: less than 0.1 ng/mg tissue
- Binding to or regulation of other molecular targets [3]: did not bind or regulate the activities of other molecular targets
- Time spent at the bottom of the tank during NTT ([4]; 100 mg/L, 20-min treatment): reduced the overall time spent at the bottom
- Concentration needed for anxiolytic-like effect relative to nicotine ([4]; NTT): > 300 fold
- Binding to α4β2 nAChR in target profiling (α4β2 nAChRs [5]): specific binding
- IC50 (α4β2 nAChRs [5]; n = 3, read-out: α4β2 nAChR IC50 (binding)): 9.9 µM
- Binding to muscle-type nAChR in target profiling (muscle-type nAChR): specific binding

Molecule: CNCC/C=C/c1cccnc1 [Metanicotine, metanicotine]
- Emax (α4β2 nAChRs [1]): 100%
- EC50 (α4β2 nAChRs [1]; α4β2 nAChR EC50): 19.5 ± 6.4 µM
- concentration at 20 min ([2]; in vivo): 70 ± 10 ng/g
- Relative brain level per 1 mg/L compound [2]: less than 0.1 ng/mg tissue
- Time spent at the bottom of the tank during NTT [4, 9]: no significant effect

Molecule: CN1CC=CC[C@H]1c1cccnc1 [Methylanatabine, (S)-N-methylanatabine]
- EC50 (α4β2 nAChRs [1]; [7]): < 8 µM
- Emax (α4β2 nAChRs [1]): 26%
- EC50 (α4β2 nAChRs [1]; α4β2 nAChR EC50): 6.2 µM
- concentration at 20 min ([2]; in vivo): 1390 ± 560 ng/g
- Relative brain level per 1 mg/L compound [2]: ~1 ng/mg tissue
- Concentration effective in reducing anxiety-like behavior in NTT ([4]; 20-min treatment): 10 mg/L
- Time spent at the bottom of the tank during NTT [4, 6]: anxiolytic-like effect
- IC50 (α4β2 nAChRs [5]): 0.891 µM

Molecule: c1cnc2cc3c(cc2n1)[C@@H]1CNC[C@H]3C1 [Varenicline, reference compound]
- concentration at 20 min [2, 8]: 450 ± 160 ng/g

Molecule: ( ±)-nornicotine
- % activation of α4β2 nAChR (normalized to nicotine) (α4β2 nAChRs [1]): 44%
- Time spent at the bottom of the tank during NTT [4, 9]: no significant effect
